In US12281080B2, “Quinoline-based compounds and methods of inhibiting CDK8/19” (University of South Carolina, priority 2018, dated 2025):
pIC50: −log10 of the molar value. Where two headings read alike, the source gives them in different places.

What was measured:
ALK = ALK (Homo sapiens (Human), UniProt Q9UM73); assay: KINOMEscan scanMAX; type: binding; conditions: 2000 nM; read-out: Percent Control
NEK7 = NEK7 (Homo sapiens (Human), UniProt Q8TDX7); assay: KINOMEscan scanMAX; type: binding; conditions: 2000 nM; read-out: Percent Control
LATS1 = LATS1 (Homo sapiens (Human), UniProt O95835); assay: KINOMEscan scanMAX; type: binding; conditions: 2000 nM; read-out: Percent Control
PIP5K2B (PIP4K2B) = PIP5K2B (PIP4K2B) (Homo sapiens (Human), UniProt P78356); assay: KINOMEscan scanMAX; type: binding; conditions: 2000 nM; read-out: Percent Control
HCK = HCK (Homo sapiens (Human), UniProt P08631); assay: KINOMEscan scanMAX; type: binding; conditions: 2000 nM; read-out: Percent Control
[1] = molecular target: TYK2(JH1domain-catalytic) (Homo sapiens (Human), UniProt P29597); assay: KINOMEscan scanMAX; type: binding; conditions: 2000 nM; read-out: Percent Control
HIPK4 = HIPK4 (Homo sapiens (Human), UniProt Q8NE63); assay: KINOMEscan scanMAX; type: binding; conditions: 2000 nM; read-out: Percent Control
[2] = Metabolic stability in human hepatocytes; type: in vitro ADME; conditions: 2 μM, 37° C.
NEK4 = NEK4 (Homo sapiens (Human), UniProt P51957); assay: KINOMEscan scanMAX; type: binding; conditions: 2000 nM; read-out: Percent Control
KIT(V559D, V654A) = KIT(V559D, V654A) (Homo sapiens (Human), UniProt P10721, V559D/V654A); assay: KINOMEscan scanMAX; type: binding; conditions: 2000 nM; read-out: Percent Control
[3] = test system: CDK8/19-mediated NFκB-driven transcription; assay: NFκB-dependent luciferase reporter assay in parental 293 reporter cells; type: cell-based, human; conditions: Homo sapiens
MAP3K15 = MAP3K15 (Homo sapiens (Human), UniProt Q6ZN16); assay: KINOMEscan scanMAX; type: binding; conditions: 2000 nM; read-out: Percent Control
KIT(V559D, T670I) = KIT(V559D, T670I) (Homo sapiens (Human), UniProt P10721, T670I/V559D); assay: KINOMEscan scanMAX; type: binding; conditions: 2000 nM; read-out: Percent Control
EGFR(E746-A750del) = EGFR(E746-A750del) (Homo sapiens (Human), UniProt P00533, DEL746-750); assay: KINOMEscan scanMAX; type: binding; conditions: 2000 nM; read-out: Percent Control
KIT(L576P) = KIT(L576P) (Homo sapiens (Human), UniProt P10721, L576P); assay: KINOMEscan scanMAX; type: binding; conditions: 2000 nM; read-out: Percent Control
MST3 (STK24) = MST3 (STK24) (Homo sapiens (Human), UniProt Q9Y6E0); assay: KINOMEscan scanMAX; type: binding; conditions: 2000 nM; read-out: Percent Control
LIMK1 = LIMK1 (Homo sapiens (Human), UniProt P53667); assay: KINOMEscan scanMAX; type: binding; conditions: 2000 nM; read-out: Percent Control
NEK1 = NEK1 (Homo sapiens (Human), UniProt Q96PY6); assay: KINOMEscan scanMAX; type: binding; conditions: 2000 nM; read-out: Percent Control
CAMK1 = CAMK1 (Homo sapiens (Human), UniProt Q14012); assay: KINOMEscan scanMAX; type: binding; conditions: 2000 nM; read-out: Percent Control
YANK1 (STK32A) = YANK1 (STK32A) (Homo sapiens (Human), UniProt Q8WU08); assay: KINOMEscan scanMAX; type: binding; conditions: 2000 nM; read-out: Percent Control
NEK6 = NEK6 (Homo sapiens (Human), UniProt Q9HC98); assay: KINOMEscan scanMAX; type: binding; conditions: 2000 nM; read-out: Percent Control
ZAP70 = ZAP70 (Homo sapiens (Human), UniProt P43403); assay: KINOMEscan scanMAX; type: binding; conditions: 2000 nM; read-out: Percent Control
ICK = ICK (Homo sapiens (Human), UniProt Q9UPZ9); assay: KINOMEscan scanMAX; type: binding; conditions: 2000 nM; read-out: Percent Control
NIK (MAP3K14) = NIK (MAP3K14) (Homo sapiens (Human), UniProt Q99558); assay: KINOMEscan scanMAX; type: binding; conditions: 2000 nM; read-out: Percent Control
CXCL1 = assay: QPCR gene expression in TNFα-treated HEK293 cells; type: cell-based, human; conditions: Homo sapiens, HEK293; range stated for all three genes
Description: (§1) Two types of cell-based assays for CDK8/19 inhibition were used to test the efficacy of quinoline quinolone compounds described herein (FIG. 3A). The first cell-based assay, which measures the effects of CDK8/19 inhibitors on RNA levels of CDK8/19-regulated genes by quantitative reverse transcription-PCR (QPCR), is based on the ability of CDK8/19 inhibitors to suppress the induction of NFκB-inducible genes by TNFα and to inhibit basal expression of MYC in human embryonic kidney (HEK) 293 cells, as previously described. In this assay, 293 cells growing in DMEM (High-glucose) media supplemented with 10% FBS are pre-treated with the tested inhibitors or DMSO control for 1 hour and then treated with 10 ng/mL TNFα (an activator of NFκB) for 2 hours (in the presence or absence of the tested inhibitors), followed by RNA extraction and QPCR analysis of RNA expression of specific genes conducted as described (Chen et al., ibid), using housekeeping genes RPL13A and GAPDH as normalization standards. […] All the quinoline derivatives inhibited the expression of all three genes.

MYC = assay: QPCR gene expression in TNFα-treated HEK293 cells; type: cell-based, human; conditions: Homo sapiens, HEK293; range stated for all three genes
Description: as §1

IL8 = assay: QPCR gene expression in TNFα-treated HEK293 cells; type: cell-based, human; conditions: Homo sapiens, HEK293; range stated for all three genes
Description: as §1

TSSK3 = TSSK3 (Homo sapiens (Human), UniProt Q96PN8); assay: KINOMEscan scanMAX; type: binding; conditions: 2000 nM; read-out: Percent Control
[4] = molecular target: ABL1(E255K)-phosphorylated (Homo sapiens (Human), UniProt P00519, E255K); assay: KINOMEscan scanMAX; type: binding; conditions: 2000 nM; read-out: Percent Control
KIT(V559D) = KIT(V559D) (Homo sapiens (Human), UniProt P10721, V559D); assay: KINOMEscan scanMAX; type: binding; conditions: 2000 nM; read-out: Percent Control
[5] = molecular target: RSK4(Kin.Dom.2-C-terminal) (RPS6KA6) (Homo sapiens (Human), UniProt Q9UK32); assay: KINOMEscan scanMAX; type: binding; conditions: 2000 nM; read-out: Percent Control
IKK-beta (IKBKB) = IKK-beta (IKBKB) (Homo sapiens (Human), UniProt O14920); assay: KINOMEscan scanMAX; type: binding; conditions: 2000 nM; read-out: Percent Control
AMPK-alpha1 (PRKAA1) = AMPK-alpha1 (PRKAA1) (Homo sapiens (Human), UniProt Q13131); assay: KINOMEscan scanMAX; type: binding; conditions: 2000 nM; read-out: Percent Control

Sequence of KIT(V559D) (P10721 26-976 V559D): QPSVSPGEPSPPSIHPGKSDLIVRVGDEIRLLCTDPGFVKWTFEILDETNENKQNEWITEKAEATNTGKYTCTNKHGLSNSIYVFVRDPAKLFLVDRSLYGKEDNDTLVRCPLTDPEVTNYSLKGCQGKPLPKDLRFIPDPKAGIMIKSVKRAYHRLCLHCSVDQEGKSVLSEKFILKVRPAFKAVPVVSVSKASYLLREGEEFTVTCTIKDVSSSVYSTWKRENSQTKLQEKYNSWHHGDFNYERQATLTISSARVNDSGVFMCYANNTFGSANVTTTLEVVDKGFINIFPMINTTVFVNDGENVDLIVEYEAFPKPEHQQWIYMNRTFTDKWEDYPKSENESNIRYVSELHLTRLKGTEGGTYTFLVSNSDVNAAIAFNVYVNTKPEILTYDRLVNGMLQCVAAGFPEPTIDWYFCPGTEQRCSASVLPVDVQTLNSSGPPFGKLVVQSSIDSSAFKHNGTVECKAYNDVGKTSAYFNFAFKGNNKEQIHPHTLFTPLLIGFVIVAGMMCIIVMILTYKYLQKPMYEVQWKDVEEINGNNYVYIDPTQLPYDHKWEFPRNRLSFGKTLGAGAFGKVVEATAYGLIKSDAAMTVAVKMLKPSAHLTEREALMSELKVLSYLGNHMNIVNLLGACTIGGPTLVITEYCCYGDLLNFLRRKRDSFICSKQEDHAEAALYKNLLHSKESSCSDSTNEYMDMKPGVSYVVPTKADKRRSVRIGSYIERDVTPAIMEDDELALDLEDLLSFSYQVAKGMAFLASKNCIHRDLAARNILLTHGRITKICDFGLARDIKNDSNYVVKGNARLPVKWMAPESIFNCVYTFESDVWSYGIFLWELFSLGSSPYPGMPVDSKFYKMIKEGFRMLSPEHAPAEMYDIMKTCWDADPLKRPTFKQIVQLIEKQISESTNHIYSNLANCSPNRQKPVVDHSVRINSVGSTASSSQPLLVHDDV
Sequence of HIPK4 (Q8NE63 whole entry): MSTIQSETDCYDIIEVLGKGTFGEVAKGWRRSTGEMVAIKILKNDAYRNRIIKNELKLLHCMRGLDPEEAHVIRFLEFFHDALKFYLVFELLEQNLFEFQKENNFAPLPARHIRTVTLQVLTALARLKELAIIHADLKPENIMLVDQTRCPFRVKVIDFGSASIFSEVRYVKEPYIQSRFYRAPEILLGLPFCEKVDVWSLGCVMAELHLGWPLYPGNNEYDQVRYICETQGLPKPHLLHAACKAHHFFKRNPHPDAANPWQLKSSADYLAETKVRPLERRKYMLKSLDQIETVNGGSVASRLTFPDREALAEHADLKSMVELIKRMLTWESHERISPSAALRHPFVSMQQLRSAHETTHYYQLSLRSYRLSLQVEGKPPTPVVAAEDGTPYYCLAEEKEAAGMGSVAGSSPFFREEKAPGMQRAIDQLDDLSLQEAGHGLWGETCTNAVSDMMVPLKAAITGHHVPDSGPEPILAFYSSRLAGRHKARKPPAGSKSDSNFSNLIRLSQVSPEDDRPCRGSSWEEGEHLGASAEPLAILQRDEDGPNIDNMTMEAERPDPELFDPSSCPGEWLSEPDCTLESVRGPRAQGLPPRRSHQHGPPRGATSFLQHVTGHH
Sequence of YANK1 (STK32A) (Q8WU08 whole entry): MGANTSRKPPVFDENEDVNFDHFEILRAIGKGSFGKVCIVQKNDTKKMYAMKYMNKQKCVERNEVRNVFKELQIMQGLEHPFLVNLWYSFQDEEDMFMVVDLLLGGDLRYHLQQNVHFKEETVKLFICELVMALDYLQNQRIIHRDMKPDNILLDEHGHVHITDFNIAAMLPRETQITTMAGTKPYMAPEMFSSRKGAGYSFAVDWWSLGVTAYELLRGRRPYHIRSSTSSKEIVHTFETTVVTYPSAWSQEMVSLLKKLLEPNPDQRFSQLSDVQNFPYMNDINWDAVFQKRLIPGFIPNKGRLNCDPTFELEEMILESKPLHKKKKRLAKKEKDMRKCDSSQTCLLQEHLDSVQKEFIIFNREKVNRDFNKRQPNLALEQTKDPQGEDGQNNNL
Sequence of EGFR(E746-A750del) (P00533 other isoform, or with tags, fused parts or gaps del E746-A750): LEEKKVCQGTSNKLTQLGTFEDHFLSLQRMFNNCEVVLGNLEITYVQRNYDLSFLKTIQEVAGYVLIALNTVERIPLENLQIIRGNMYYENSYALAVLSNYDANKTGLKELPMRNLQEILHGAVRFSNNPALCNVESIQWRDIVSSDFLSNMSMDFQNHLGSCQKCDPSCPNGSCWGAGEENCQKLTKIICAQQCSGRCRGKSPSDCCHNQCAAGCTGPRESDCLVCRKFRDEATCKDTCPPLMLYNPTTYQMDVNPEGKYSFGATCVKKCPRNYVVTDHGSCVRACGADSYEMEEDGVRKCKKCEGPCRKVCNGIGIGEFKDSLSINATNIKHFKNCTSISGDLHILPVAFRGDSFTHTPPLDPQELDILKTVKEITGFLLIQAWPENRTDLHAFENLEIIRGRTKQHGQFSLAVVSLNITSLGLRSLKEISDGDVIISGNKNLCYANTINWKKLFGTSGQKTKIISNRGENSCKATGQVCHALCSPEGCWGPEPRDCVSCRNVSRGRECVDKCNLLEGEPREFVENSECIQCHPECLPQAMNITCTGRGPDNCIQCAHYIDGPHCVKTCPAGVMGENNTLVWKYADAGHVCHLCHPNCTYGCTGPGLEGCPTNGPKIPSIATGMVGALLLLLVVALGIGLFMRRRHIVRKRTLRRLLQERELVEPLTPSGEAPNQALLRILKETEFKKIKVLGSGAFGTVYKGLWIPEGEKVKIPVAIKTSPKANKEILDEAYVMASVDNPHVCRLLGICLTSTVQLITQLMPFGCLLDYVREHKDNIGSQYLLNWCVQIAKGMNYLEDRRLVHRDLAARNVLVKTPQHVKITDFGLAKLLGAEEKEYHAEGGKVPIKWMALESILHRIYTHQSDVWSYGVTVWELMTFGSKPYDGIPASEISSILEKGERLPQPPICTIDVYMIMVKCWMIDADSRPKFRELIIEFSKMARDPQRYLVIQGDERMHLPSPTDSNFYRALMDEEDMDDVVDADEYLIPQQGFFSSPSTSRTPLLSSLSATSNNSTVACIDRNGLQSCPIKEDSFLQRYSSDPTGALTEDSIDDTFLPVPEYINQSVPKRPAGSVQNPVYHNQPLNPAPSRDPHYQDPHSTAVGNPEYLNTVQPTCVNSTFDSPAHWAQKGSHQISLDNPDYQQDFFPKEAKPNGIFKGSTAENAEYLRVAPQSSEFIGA
Sequence of NEK6 (Q9HC98 whole entry): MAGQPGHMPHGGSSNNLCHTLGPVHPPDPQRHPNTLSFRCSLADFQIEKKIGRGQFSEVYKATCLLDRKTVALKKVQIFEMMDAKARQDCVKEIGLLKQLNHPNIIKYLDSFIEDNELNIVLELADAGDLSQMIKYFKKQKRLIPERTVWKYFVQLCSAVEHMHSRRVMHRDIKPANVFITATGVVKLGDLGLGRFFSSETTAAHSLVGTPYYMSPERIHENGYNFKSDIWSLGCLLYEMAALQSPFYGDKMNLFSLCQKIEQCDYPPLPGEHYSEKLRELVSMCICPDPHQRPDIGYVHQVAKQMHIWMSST
Sequence of IKK-beta (IKBKB) (O14920 whole entry): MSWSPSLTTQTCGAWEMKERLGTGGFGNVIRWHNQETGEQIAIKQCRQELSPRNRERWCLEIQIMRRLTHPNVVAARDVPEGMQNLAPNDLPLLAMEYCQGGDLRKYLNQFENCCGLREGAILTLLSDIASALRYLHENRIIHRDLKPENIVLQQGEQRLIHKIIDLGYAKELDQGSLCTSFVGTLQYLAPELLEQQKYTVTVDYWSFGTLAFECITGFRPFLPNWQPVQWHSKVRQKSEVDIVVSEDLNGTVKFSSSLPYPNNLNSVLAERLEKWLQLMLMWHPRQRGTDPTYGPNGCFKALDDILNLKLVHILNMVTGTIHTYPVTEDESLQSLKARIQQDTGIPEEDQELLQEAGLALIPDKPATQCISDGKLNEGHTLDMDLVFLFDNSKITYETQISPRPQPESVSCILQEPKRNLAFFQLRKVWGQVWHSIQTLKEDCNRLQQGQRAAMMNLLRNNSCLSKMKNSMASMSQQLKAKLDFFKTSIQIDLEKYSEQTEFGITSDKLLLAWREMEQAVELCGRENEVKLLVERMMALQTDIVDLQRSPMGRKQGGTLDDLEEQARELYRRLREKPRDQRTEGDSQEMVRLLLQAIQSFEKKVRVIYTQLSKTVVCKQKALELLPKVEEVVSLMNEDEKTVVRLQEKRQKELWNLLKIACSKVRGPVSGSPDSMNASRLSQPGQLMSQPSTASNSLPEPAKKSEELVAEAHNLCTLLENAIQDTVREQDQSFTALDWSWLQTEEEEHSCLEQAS
Sequence of CAMK1 (Q14012 whole entry): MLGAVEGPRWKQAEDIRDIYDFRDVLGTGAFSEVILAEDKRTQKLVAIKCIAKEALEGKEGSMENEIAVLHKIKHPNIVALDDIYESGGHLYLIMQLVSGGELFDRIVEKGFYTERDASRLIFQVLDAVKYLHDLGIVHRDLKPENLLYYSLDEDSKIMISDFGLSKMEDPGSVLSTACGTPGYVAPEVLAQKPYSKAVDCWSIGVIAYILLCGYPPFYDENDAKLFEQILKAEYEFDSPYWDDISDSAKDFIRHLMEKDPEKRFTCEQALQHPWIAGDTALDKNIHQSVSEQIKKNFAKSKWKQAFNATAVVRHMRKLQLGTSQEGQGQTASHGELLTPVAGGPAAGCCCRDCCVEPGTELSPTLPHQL
Sequence of TYK2(JH1domain-catalytic) (P29597 897-1176): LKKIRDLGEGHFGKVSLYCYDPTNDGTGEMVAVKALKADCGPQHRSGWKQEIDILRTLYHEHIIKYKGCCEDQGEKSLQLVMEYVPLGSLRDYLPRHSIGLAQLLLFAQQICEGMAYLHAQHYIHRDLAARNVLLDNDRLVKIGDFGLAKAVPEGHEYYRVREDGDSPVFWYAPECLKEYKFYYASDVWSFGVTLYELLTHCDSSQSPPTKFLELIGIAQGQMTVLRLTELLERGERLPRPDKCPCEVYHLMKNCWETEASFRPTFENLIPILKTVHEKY
Sequence of KIT(L576P) (P10721 26-976 L576P): as the sequence (P10721 26-976 V559D) above, with D534V, L551P counted along it
Sequence of KIT(V559D, T670I) (P10721 26-976 V559D/T670I): as the sequence (P10721 26-976 V559D) above, with T645I counted along it
Sequence of KIT(V559D, V654A) (P10721 26-976 V559D/V654A): as the sequence (P10721 26-976 V559D) above, with V629A counted along it

Question: With CN1CCN(C(=O)c2ccc3cc(CCNc4ccnc5ccc(C#N)cc45)ccc3c2)CC1 [compound 6148, 4-((2-(6-(4-methylpiperazine-1-carbonyl)naphthalen-2-yl)ethyl)amino)quinoline-6-carbonitrile] as the molecule, how does the remaining binding at 2 µM (ALK) read?
Answer: 89%

Question: What about the remaining binding at 2 µM (NEK7) of the same molecule?
Answer: 94%

Question: What about the remaining binding at 2 µM (LATS1) of the same molecule?
Answer: 76%

Question: What about the remaining binding at 2 µM (PIP5K2B (PIP4K2B)) of the same molecule?
Answer: 85%

Question: And the remaining binding at 2 µM (HCK)?
Answer: 96%

Question: And the remaining binding at 2 µM [1]?
Answer: 62%

Question: And the remaining binding at 2 µM (HIPK4)?
Answer: 75%

Question: What about the “Metabolic conversion rate in cultured hepatocytes” value [2] of the same molecule?
Answer: greatly decreased relative to Senexin B

Question: What about the remaining binding at 2 µM (NEK4) of the same molecule?
Answer: 60%

Question: What about the remaining binding at 2 µM (KIT(V559D, V654A)) of the same molecule?
Answer: 89%

Question: What about the pIC50 ([3]; 293/NFkB-luc, read-out: IC50 (293-NFKB-Luc)) of the same molecule?
Answer: 7.26

Question: What about the pIC50 ([3]; HEK293, parental 293-derived reporter cell line, read-out: HEK293 NFKB CDK8 Reporter IC50) of the same molecule?
Answer: 7.19

Question: What about the remaining binding at 2 µM (MAP3K15) of the same molecule?
Answer: 83%

Question: And the remaining binding at 2 µM (KIT(V559D, T670I))?
Answer: 90%

Question: What about the remaining binding at 2 µM (EGFR(E746-A750del)) of the same molecule?
Answer: 100%

Question: What about the remaining binding at 2 µM (KIT(L576P)) of the same molecule?
Answer: 100%

Question: And the remaining binding at 2 µM (MST3 (STK24))?
Answer: 100%

Question: What about the remaining binding at 2 µM (LIMK1) of the same molecule?
Answer: 95%

Question: What about the remaining binding at 2 µM (NEK1) of the same molecule?
Answer: 84%

Question: And the remaining binding at 2 µM (CAMK1)?
Answer: 84%

Question: And the remaining binding at 2 µM (YANK1 (STK32A))?
Answer: 76%

Question: And the remaining binding at 2 µM (NEK6)?
Answer: 93%

Question: And the remaining binding at 2 µM (ZAP70)?
Answer: 81%

Question: What about the remaining binding at 2 µM (ICK) of the same molecule?
Answer: 54%

Question: And the remaining binding at 2 µM (NIK (MAP3K14))?
Answer: 88%

Question: What about the pIC50 (CXCL1) of the same molecule?
Answer: 7.46 to 7.60

Question: What about the pIC50 (MYC) of the same molecule?
Answer: 7.46 to 7.60

Question: And the pIC50 (IL8)?
Answer: 7.46 to 7.60

Question: And the remaining binding at 2 µM (TSSK3)?
Answer: 81%

Question: And the remaining binding at 2 µM [4]?
Answer: 93%

Question: And the remaining binding at 2 µM (KIT(V559D))?
Answer: 95%

Question: And the remaining binding at 2 µM [5]?
Answer: 96%

Question: What about the remaining binding at 2 µM (IKK-beta (IKBKB)) of the same molecule?
Answer: 76%

Question: And the remaining binding at 2 µM (AMPK-alpha1 (PRKAA1))?
Answer: 94%
